Results: the NIST ThermoML archive (doi:10.1016/j.fluid.2017.05.008)
± gives the expanded uncertainty stated by the source. Values belong to the compound of their own block, whether it stands above or below them.

Assay: an = ratio of the nth substance listed
Conditions: 298.15 K; for surface tension liquid-gas: Ring tensiometer; for viscosity: 101 kPa, Liquid, Concentric cylinders viscometry

SMILES: OCCCCO [1,4-butanediol] + C[N+](C)(C)CCO.[Cl-]
surface tension liquid-gas (a1 = 3): 55.8 ± 0.9 mN/m | viscosity (a1 = 3): 94 ± 6 mPa·s

surface tension liquid-gas (a1 = 3.5): 47.5 ± 0.8 mN/m | viscosity (a1 = 3.5): 110 ± 7 mPa·s
SMILES: OCCCCCO [1,5-pentanediol] + C[N+](C)(C)CCO.[Cl-]

surface tension liquid-gas (a2 = 2): 68.7 ± 1.1 mN/m | viscosity (a2 = 2): 296 ± 32 mPa·s
SMILES: C[N+](C)(C)CCO.[Cl-] [choline chloride] + OCC(O)CO

surface tension liquid-gas (a2 = 2): 56.5 ± 0.6 mN/m | viscosity (a2 = 2): 40 ± 2 mPa·s
SMILES: C[N+](C)(C)CCO.[Cl-] [choline chloride] + OCCO

surface tension liquid-gas (a1 = 1): 60.8 ± 1 mN/m | viscosity (a1 = 1): 767 ± 140 mPa·s
SMILES: O.O.O=C(O)C(=O)O [ethanedioic acid dihydrate] + C[N+](C)(C)CCO.[Cl-]

surface tension liquid-gas (a1 = 2): 71.6 ± 1.2 mN/m | viscosity (a1 = 2): 849 ± 150 mPa·s
SMILES: NC(N)=O [urea] + C[N+](C)(C)CCO.[Cl-]
